Source: patent publication US9375477B2 (GALDERMA RESEARCH & DEVELOPMENT, priority 2012, dated 2016)

Assay: In vitro cutaneous penetration on human skin (Franz cell)
Type: in vitro ADME
Details: 16 hours after application; the 3 formulae evaluated (Examples 2 and 9, reference gel)
Procedure: The cutaneous penetration studies performed on the formulations of the invention containing an active principle of the retinoid class were performed in vitro on whole human abdominal skin after excision, this skin being mounted on a Franz cell.
After topical application of a given amount of the formulation to the surface of the skin, the penetration of the active principle is measured 16 hours after application.
The amount of active principle of the retinoid class is measured in the various skin compartments: stratum corneum, epidermis, dermis and also in the receiving liquid.
The bioanalysis was carried out by positive electrospray ionization tandem mass spectrometry, and using a Xevo machine (Waters).
The quantification limit for compound A is 0.5 ng/mL. The LC/MS/MS conditions developed made it possible to detect up to 0.1% of the dose applied in each of the compartments (dose not absorbed, stratum, epidermis, dermis and receiving liquid). The appropriateness, accuracy and repeatability of the method were checked in each of the matrices, and made it possible to validate the bioanalysis method.
In this type of “single point” study, the parameters retained are: • a. the distribution profile in the various compartments (qualitative data) • b. the penetration into the epidermis+dermis compartment (numerical data)

## CC(C)(C)c1cc(-c2cc(-c3ccc(C(=O)O)cc3)ccc2OCCO)ccc1N1CCCC1 [Compound A, 3″-tert-butyl-4′-(2-hydroxyethoxy)-4″-pyrrolidin-1-yl-[1,1′; 3′,1″]-terphenyl-4-carboxylic acid]
  Compound A in the receiving liquid: not detected
